Laboratory results as given in patent US20120107239A1, “Precursor of Molecular Probe for Pancreatic Islet Imaging and Use of the Same” (priority 2009, published 2012).

Assays:
[1] = biological target: SUR1 (Homo sapiens, UniProt Q09428); conditions: compared with nateglinide; cited from earlier work
[2] = test system: pancreatic islets; assay: Three-dimensional imaging (PET) of a mouse; assay type: in vivo; conditions: 104 μCi intravenously, ddy mouse, image 10 minutes after administration, FIG. 3
Experimental: The molecular probe (compound (6)) was used to perform three-dimensional imaging of a mouse. The molecular probe (104 μCi) was administered intravenously to a 6-week-old ddy mouse (which was male and weighted 25 g) under anesthesia. Then, the three-dimensional imaging was performed with the following PET apparatus and conditions.
Imaging apparatus: eXplore Vista (product name, manufactured by General Electric Company)
Imaging method: Static Scan
Reconstruction: 2DOSEM (Dynamic OS-EM)
The image in FIG. 3 was taken 10 minutes after the administration of the molecular probe (integrating time: 10 minutes). In FIG. 3, the portion indicated by the white circle is near the pancreas.

[3] = biological target: T1, SU receptor (Mus musculus, UniProt B2RUS7); assay: SU receptor binding experiment ([3H]-glibenclamide displacement on dispersed pancreatic islet cells); set-up: species or system mice
T1 construct: the pancreatic islets isolated from the mice were dispersed into single cells; from tissue; host or cells: single cells dispersed from isolated mouse pancreatic islets
T1 sequence (B2RUS7 1-1588): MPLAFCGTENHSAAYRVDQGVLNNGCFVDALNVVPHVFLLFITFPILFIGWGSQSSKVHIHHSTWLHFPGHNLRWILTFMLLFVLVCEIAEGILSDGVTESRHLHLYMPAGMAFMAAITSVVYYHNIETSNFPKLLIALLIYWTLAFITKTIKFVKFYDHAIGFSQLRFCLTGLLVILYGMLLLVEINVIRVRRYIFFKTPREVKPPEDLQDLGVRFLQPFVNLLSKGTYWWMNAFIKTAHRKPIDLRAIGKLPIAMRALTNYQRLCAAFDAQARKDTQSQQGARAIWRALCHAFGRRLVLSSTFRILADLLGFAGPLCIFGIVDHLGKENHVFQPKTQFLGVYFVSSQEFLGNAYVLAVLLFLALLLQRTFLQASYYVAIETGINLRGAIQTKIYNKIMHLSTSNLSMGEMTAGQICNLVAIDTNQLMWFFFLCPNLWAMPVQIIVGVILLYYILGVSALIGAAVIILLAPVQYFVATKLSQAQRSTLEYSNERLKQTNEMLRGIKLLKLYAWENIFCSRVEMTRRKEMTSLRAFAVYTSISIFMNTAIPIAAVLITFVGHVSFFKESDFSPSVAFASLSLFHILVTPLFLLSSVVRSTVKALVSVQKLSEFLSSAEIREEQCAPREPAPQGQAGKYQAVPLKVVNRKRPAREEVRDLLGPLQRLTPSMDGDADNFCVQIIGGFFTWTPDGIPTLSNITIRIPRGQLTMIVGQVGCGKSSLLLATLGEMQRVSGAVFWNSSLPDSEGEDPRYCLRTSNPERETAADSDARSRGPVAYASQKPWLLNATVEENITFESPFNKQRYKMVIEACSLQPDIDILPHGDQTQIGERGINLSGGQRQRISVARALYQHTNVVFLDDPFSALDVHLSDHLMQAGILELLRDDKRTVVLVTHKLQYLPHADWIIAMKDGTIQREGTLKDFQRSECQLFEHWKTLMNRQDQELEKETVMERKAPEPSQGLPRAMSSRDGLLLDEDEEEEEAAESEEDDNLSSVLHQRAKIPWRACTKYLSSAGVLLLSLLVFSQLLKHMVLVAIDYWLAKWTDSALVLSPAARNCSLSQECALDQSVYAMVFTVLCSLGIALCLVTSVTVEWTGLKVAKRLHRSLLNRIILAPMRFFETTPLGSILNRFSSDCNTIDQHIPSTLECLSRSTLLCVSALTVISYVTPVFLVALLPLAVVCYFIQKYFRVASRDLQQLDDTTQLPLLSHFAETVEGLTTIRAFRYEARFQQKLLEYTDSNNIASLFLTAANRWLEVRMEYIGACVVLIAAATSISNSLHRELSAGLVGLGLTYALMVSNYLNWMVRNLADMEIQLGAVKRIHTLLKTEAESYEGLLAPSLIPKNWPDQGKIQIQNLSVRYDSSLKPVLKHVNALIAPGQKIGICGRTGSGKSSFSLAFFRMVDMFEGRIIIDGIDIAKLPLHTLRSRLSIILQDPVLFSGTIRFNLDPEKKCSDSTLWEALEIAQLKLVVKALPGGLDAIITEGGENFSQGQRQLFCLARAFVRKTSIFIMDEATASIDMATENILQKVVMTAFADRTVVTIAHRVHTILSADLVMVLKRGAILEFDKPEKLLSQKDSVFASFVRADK
T1 sequence (Q61743 whole entry partner): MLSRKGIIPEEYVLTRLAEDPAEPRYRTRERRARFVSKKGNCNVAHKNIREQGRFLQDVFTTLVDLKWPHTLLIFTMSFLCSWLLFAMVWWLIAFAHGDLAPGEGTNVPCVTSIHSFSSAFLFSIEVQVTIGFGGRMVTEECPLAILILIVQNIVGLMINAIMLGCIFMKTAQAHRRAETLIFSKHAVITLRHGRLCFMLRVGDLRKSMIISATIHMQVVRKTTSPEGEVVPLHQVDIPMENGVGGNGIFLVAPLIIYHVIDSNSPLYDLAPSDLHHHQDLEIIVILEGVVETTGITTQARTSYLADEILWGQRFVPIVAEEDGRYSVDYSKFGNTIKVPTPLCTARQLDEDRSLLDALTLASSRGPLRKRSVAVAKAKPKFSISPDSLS
Experimental: Next, the pancreatic islets isolated from the mice were dispersed into single cells to prepare 1.7×10^5 cells/sample. A solution containing [^3H]-glibendamide; which was obtained by labeling glibenclamide (4-[2-(5-Chloro-2-methoxybenzoylammo)ethyl]-N-(cyclohexylcarbamoyl)benzenesulfon amide, serving as an SU agent) with ^3H, was added to these cells so that the final concentration of the [^3H]-glibenclamide was 1.85 pmol/L. Subsequently, a reagent containing the compound (7) was added (final concentration of the compound (7): 1×10^−4 to 1×10^−12 M), and incubation was performed at room temperature for 1 hour. The reaction was stopped by filtration, and the radioactivity was measured with a liquid scintillation analyzer.
Therefore, the molecular probe expressed as the formula (7) might have a SUR1 binding site.

Chain of SUR1 (Q09428 whole entry, species assumed): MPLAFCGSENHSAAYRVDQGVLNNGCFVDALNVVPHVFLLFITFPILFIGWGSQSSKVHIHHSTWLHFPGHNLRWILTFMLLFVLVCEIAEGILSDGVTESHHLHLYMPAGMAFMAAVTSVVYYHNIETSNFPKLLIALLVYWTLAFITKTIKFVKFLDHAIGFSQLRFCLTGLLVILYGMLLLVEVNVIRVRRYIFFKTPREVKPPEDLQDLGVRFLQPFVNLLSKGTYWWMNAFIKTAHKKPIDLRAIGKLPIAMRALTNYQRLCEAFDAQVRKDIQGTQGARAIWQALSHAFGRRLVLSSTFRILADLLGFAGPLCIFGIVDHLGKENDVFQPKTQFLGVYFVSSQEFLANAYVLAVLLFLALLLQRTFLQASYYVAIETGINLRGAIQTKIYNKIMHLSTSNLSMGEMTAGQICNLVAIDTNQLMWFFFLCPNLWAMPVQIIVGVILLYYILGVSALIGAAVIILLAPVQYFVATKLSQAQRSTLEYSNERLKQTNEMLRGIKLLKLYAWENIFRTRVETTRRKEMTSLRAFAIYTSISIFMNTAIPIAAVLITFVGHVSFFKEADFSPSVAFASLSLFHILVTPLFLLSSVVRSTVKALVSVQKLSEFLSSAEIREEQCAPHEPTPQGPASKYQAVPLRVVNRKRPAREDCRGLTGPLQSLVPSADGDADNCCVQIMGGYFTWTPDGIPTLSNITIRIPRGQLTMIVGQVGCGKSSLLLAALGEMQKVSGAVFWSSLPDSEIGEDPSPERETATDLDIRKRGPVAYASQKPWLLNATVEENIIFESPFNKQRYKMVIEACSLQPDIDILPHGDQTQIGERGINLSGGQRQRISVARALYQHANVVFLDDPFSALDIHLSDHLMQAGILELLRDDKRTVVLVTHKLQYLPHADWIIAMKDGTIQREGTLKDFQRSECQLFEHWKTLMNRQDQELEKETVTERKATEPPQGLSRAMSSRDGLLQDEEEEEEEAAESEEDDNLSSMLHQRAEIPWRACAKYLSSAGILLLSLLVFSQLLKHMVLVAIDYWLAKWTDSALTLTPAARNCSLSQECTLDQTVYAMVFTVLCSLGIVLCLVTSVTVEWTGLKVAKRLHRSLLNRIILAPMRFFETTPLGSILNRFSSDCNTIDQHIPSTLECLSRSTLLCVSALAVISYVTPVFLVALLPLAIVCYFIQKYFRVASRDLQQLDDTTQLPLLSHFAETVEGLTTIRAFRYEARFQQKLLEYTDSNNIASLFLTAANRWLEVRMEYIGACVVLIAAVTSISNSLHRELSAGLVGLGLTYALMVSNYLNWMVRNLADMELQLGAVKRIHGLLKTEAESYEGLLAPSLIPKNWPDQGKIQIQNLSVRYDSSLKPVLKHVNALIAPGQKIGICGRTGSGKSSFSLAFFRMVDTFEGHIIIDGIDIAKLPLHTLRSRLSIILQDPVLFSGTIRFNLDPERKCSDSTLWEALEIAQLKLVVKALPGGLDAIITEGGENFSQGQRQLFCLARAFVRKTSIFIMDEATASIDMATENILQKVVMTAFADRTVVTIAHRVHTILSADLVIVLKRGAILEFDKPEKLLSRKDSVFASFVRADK
Chain of SUR1 (Q14654 whole entry partner, species assumed): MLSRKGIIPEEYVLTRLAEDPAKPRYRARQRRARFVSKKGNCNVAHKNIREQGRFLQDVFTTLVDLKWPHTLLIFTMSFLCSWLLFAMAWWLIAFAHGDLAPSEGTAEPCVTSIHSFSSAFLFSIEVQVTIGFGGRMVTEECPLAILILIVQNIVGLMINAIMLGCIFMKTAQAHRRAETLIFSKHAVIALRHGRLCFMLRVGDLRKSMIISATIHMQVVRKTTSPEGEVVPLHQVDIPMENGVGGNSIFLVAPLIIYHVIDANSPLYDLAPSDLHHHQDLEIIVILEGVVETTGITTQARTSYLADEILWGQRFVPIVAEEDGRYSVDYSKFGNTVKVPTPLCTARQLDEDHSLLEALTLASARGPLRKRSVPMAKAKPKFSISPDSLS

Q: Which “selectivity for SUR1 in vitro relative to nateglinide” value [1] does the source give for O=C(O)[C@H](CC(=O)N1C[C@H]2CCCC[C@H]2C1)Cc1ccccc1 [mitiglinide, (+)-monocalcium bis [(2S, 3a, 7a-cis)-α-benzylhexahydro-γ-oxo-2-isoindolinebutyrate]dihydrate] here?
A: about 100 times

Q: For O=C(O)C(CC(=O)N1C[C@H]2CCCC[C@H]2C1)Cc1ccc(OCC[18F])cc1 (stereo partly shown) [compound (6)], which “PET imaging result (distinguishing the pancreas)” value [2] is on record?
A: the approximate position of the pancreas could be distinguished noninvasively

Q: What does the source list for O=C(O)[C@H](CC(=O)N1C[C@H]2CCCC[C@H]2C1)Cc1ccc(OCCF)cc1 [compound (7)]?
A: inhibition of the bond between the SU receptor and [3H]-glibenclamide ([3]; compound 1×10^−4 to 1×10^−12 M, FIG. 2): inhibited the bond between the SU receptor and the [^3H]-glibenclamide in the concentration-dependent manner; EC50 ([3]; inhibition of [3H]-glibenclamide (1.85 pmol/L) binding, mouse islet cells 1.7×10^5 cells/sample, room temperature, 1 hour): 23.5 nM
